We go through 14 molecules from article PMC8904554, “Discovery of antimicrobials by massively parallelized growth assays (Me^x)” (Scientific Reports, 2022).

Read-outs that look alike come from different tables or passages of the source. Ends that are not written are not given here.

For one data set, the system named is E. coli TOP10. As to the kind of experiment: microbe, parasite or virus in culture. The data set is classed as cell-based, Escherichia coli. As to conditions: for MIC [µM] 25%MHB: 25% (diluted) Mueller-Hinton Broth; for MIC [µM] 25%MHB / MIC [µM] 100%MHB: 5 × 10^5 cells ml^−1, twofold dilutions, 18 h, 37 °C, no shaking, OD read-out, MIC = < 5% of OD of growth control, mean, n = 3; for MIC [µM] 100%MHB: 100% Mueller-Hinton Broth; for MIC: Escherichia coli, TOP10, read-out: MIC of ampicillin (control) against E. coli TOP10, control. The procedure: On the same day at which MIC assays were executed, purified peptides were thawed and the concentration was determined by HPLC as described before. […] The cultures were then supplemented with 20% glycerol, aliquoted, and frozen at − 80 °C. […] Then the peptides were added by the liquid handling system in twofold dilutions using minimum of 100 µg ml^−1 as the highest concentration. MICs were determined as broth microdilution assay in 384-well flat bottom polypropylene plates (Falcon 96-Well Flat-Bottom Microplate) adapted from the protocol of Wiegand et al.[43]. The plates were sealed airtight and incubated for 18 h without shaking at 37 °C before reading the OD using a Tecan Infinite 200 PRO plate reader. […] MIC experiments were performed at least in triplicate.

For another data set, the system named is human erythrocytes. As to the kind of experiment: Hemolysis assay using chemically synthesized peptides. As to Hemolysis at 16MIC: relative to full lysis with 2.5% Triton-X100. The data set is classed as cell-based. As to conditions: for Hemolysis at 16MIC: peptide at 16 × MIC; for Hemolysis at 16MIC / Hemolysis at MIC: human erythrocytes 1:50 in DPBS, 1 h, 37 °C, absorbance 540 nm, relative to full lysis with […] Triton-X100, n = 4; for Hemolysis at MIC: peptide at MIC; for hemolytic activity, in words: MIC/16 to 16 × MIC. How it is done:
Two samples of human blood were obtained from a blood bank (Blutspendezentrum SRK at the University Hospital Basel). The samples were pooled and erythrocytes were isolated by repeated centrifugation at 500×g for 10 min, removal of the blood plasma and resuspending the remaining cells in an equal volume of DPBS. Following last resuspension, erythrocytes were diluted 1:50 in DPBS. […] To each well of the dilution plate, 100 μl of the red blood cells suspension was added. The plate was incubated for 1 h at 37 °C. […] The absorbance was measured at 540 nm using an Infinite M1000 PRO plate reader (Tecan) and corrected by the measurements from the untreated wells. The lysis of each peptide concentration was expressed relative to the lysis control (set as 100% lysis). […]

The subject of the next data set is E. coli ATCC 25922. The data set is classed as cell-based. As to conditions: chemically synthesized peptide, mean, n = 3. How it is done:
(§1) On the same day at which MIC assays were executed, purified peptides were thawed and the concentration was determined by HPLC as described before. E. coli TOP10 cells were grown in Mueller Hinton Broth (MHB) or diluted MHB (25% of the original strength) overnight to stationary phase. Diluted MHB has been frequently used to assay antimicrobial peptides. The cultures were then supplemented with 20% glycerol, aliquoted, and frozen at − 80 °C. […] Then the peptides were added by the liquid handling system in twofold dilutions using minimum of 100 µg ml^−1 as the highest concentration. MICs were determined as broth microdilution assay in 384-well flat bottom polypropylene plates (Falcon 96-Well Flat-Bottom Microplate) adapted from the protocol of Wiegand et al.[43]. The plates were sealed airtight and incubated for 18 h without shaking at 37 °C before reading the OD using a Tecan Infinite 200 PRO plate reader. […] MIC experiments were performed at least in triplicate.

In data set [1] the test system is Enterococcus faecalis ATCC 29212. In kind it is cell-based. As to conditions: chemically synthesized peptide, mean, n = 3. The procedure:
as §1

Data set [2] relates to Pseudomonas aeruginosa ATCC 47085. In kind it is cell-based. As to conditions: chemically synthesized peptide, mean, n = 3. How it is done:
as §1

Data set [3] has as its system Klebsiella pneumonia ATCC 13883. The data set is classed as cell-based. As to conditions: chemically synthesized peptide, mean, n = 3. How it is done:
as §1

Data set [4] deals with Staphylococcus aureus ATCC 29213. In kind it is cell-based. As to conditions: chemically synthesized peptide, mean, n = 3. How it is done:
as §1

Data set [5] in a line: Precipitation observed in the membrane damage assay. In kind it is physicochemical. As to conditions: 100% MHB, printed as higher than 4xMIC (16 µM). The procedure:
The bacterial strain suspension was furthermore supplemented with a final concentration of 1 µg ml^−1 propidium iodide just before pipetting the assay. […] The fractions of PI-positive and GFP-positive were determined with the same gate for all populations using the FlowJo V10 software (BD Biosciences). The extracellular membrane integrity assay was performed in biological duplicates analyzing at least 10,000 cells in each experiment.

The next data set relates to E.coli. Details: method as in earlier work. As to conditions: ref supplement references 1-15 (Table S1); cited from earlier work.
Another data set concerns bacteria. Also noted: method as in earlier work. As to conditions: ref supplement references 1-15 (Table S1); cited from earlier work.

For `CC[C@H](C)[C@H](NC(=O)[C@H](Cc1c[nH]c2ccccc12)NC(=O)[C@H](CCCCN)NC(=O)[C@@H](NC(=O)[C@H](CC(C)C)NC(=O)[C@H](CC(=O)O)NC(=O)CNC(=O)[C@@H](NC(=O)[C@@H](NC(=O)[C@H](CO)NC(=O)[C@@H](NC(=O)[C@@H](NC(=O)[C@H](CC(=O)O)NC(=O)[C@H](C)NC(=O)[C@H](C)NC(=O)[C@@H](N)CCSC)[C@@H](C)CC)[C@@H](C)CC)[C@@H](C)O)[C@@H](C)CC)C(C)C)C(=O)N[C@H](C(=O)N[C@@H](CC(=O)O)C(=O)N[C@H](C(=O)N[C@H](C(=O)N[C@@H](CC(N)=O)C(=O)N[C@@H](CCCCN)C(=O)N[C@@H](Cc1ccccc1)C(=O)N[C@@H](CCCCN)C(=O)O)C(C)C)[C@@H](C)O)[C@@H](C)CC` [Delta lysin I 3458 NCBI], in the data set with E. coli TOP10, the “MIC [µM] 25%MHB” value was above 60 µM and the “MIC [µM] 100%MHB” value was above 60 µM.

Regarding `CC1(C)S[C@@H]2[C@H](NC(=O)[C@H](N)c3ccccc3)C(=O)N2[C@H]1C(=O)O` [ampicillin, reference compound], the MIC in the data set with E. coli TOP10 (25% MHB) came out at 17 µM; with E. coli TOP10 (100% MHB), 34 µM.

Take “AIAKLVAKFGWPIVKKYYKQIMQFIGEGWAINKIIEWIKK [Enterocin RJ-11 3780 NCBI]”: in the data set on human erythrocytes, the “hemolysis at the MIC compared to the Triton-X100 control (toxicity towards human erythrocytes)” value is above 5%, the “Hemolysis at 16MIC” value is given as 103.3% and the “Hemolysis at MIC” value came out at 22.7%. Also, in the data set on E. coli TOP10, the “MIC [µM] 25%MHB” value amounted to 1 µM and the “MIC [µM] 100%MHB” value turned out to be 0.5 µM.

In the case of “GFKDWIKGAAKKLIKTVASSIANE [Ascaphin-6 9286 APD]”, in the data set with human erythrocytes, the “Hemolysis at 16MIC” value was determined as 1.4% and the “Hemolysis at MIC” value is reported as 0%. Also, in the data set with E. coli TOP10, the “MIC [µM] 25%MHB” value worked out at 1 µM and the “MIC [µM] 100%MHB” value was 0.8 µM.

For “GKFSGFAKILKSIAKFFKGVGKVRKGFKEASDLDKNQ [Oxyopinin 2b 9690 APD]”, in the data set on human erythrocytes, the “hemolytic activity, in words” value is on record as “displayed hemolytic activity at higher concentrations”; the “Hemolysis at 16MIC” value was 63.4%; the “Hemolysis at MIC” value was 0.7%. Also, in the data set with E. coli TOP10, the “MIC [µM] 25%MHB” value turned out to be 0.5 µM and the “MIC [µM] 100%MHB” value turned out to be 0.5 µM.

Consider “GWFKKAWRKVKHAGRRVLDTAKGVGRHYLNNWLNRYR [HFIAP-1 4545 NCBI]”, for which the “hemolytic activity, in words” value with human erythrocytes is “displayed hemolytic activity at higher concentrations”. The “Hemolysis at 16MIC” value in the data set on human erythrocytes was 18.9%. Further, the “Hemolysis at MIC” value in the data set on human erythrocytes came out at 4.1%. For the same molecule, the “MIC [µM] 25%MHB” value with E. coli TOP10 was found to be 0.5 µM. Besides, in the data set on E. coli TOP10, the “MIC [µM] 100%MHB” value came to 0.5 µM. The “MIC [µm] in MHB” value in the data set on E. coli ATCC 25922 stood at 0.7 µM; in [1], 5.6 µM; in data set [2], 0.7 µM; in data set [3], 0.4 µM; in data set [4], 1.4 µM.

Take “KRFKKFFKKLKKSVKKRAKKFFKKPRVIGVSIPF [BF-CATH 9639 APD]”: in the data set with human erythrocytes, the “Hemolysis at 16MIC” value is 4.8% and the “Hemolysis at MIC” value is given as 2.1%. In addition, in the data set on E. coli TOP10, the “MIC [µM] 25%MHB” value worked out at 1 µM and the “MIC [µM] 100%MHB” value is given as 1 µM.

“LKDKVKSMGEKLKQYIQTWKAKF [Latarcin 4a 5147 APD]”: in the data set with human erythrocytes, the “Hemolysis at 16MIC” value worked out at 2.8% and the “Hemolysis at MIC” value turned out to be 0.2%. Also, in the data set on E. coli TOP10, the “MIC [µM] 25%MHB” value was found to be 5 µM and the “MIC [µM] 100%MHB” value is reported as 8 µM.

Consider “Melittin: highly membrane damaging peptide used as a control [reference compound]”, for which the “hemolysis at the MIC compared to the Triton-X100 control (toxicity towards human erythrocytes)” value in the data set on human erythrocytes is above 5%. Besides, the “concentration above which the peptide started to precipitate” value in data set [5] was above 16 µM.

Take “Pyrrhocoricin PARENT: PARENT peptide on the APD, a ribosomal inhibitor”: the “Previously reported activity against E.coli of parent” value in the data set with E.coli was “active”. Moreover, in the data set with bacteria, the “Reported antibacterial mechanism of action of parent” value is “Translation inhibition”.

For TALKGAAKELASTYQH [Maximin 3 5468 NCBI], in the data set with E. coli TOP10, the “MIC [µM] 25%MHB” value is above 60 µM and the “MIC [µM] 100%MHB” value is given as above 60 µM.

As to “VDKGGYLPRPTPPRPVYR [Pyrrhocoricin 7122 NCBI]”, in the data set on human erythrocytes, the “Hemolysis at 16MIC” value turned out to be 2.3% and the “Hemolysis at MIC” value turned out to be 1.1%. For the same molecule, in the data set on E. coli TOP10, the “MIC [µM] 25%MHB” value worked out at 8 µM and the “MIC [µM] 100%MHB” value is 20 µM.

In the case of “VKLIQIRIWIQYVTVLQMFSMKTKQ [Meucin-25 11598 APD]”, in the data set on E. coli TOP10, the “MIC [µM] 25%MHB” value is above 60 µM and the “MIC [µM] 100%MHB” value was above 60 µM.

Turning to VSKIKKYLKYKDRI [P-10 8942 APD], in the data set on human erythrocytes, the “Hemolysis at 16MIC” value is 2.2% and the “Hemolysis at MIC” value is recorded as 0.5%. In addition, in the data set with E. coli TOP10, the “MIC [µM] 25%MHB” value was 13 µM and the “MIC [µM] 100%MHB” value is above 60 µM.
